In ChEMBL document CHEMBL1240439, “Synthesis and docking studies of novel benzopyran-2-ones with anticancer activity” (2010):
Active and inactive are the calls of the source.

What was measured:
Format in all cases: functional
RPMI-8226 = assay: Cytotoxicity against human RPMI8226 cells assessed as cell growth at 10 uM after 48 hrs by sulforhodamine B assay
NCI-H23 = assay: Cytotoxicity against human NCI-H23 cells assessed as cell growth at 10 uM after 48 hrs by sulforhodamine B assay
DU-145 = assay: Cytotoxicity against human DU145 cells assessed as cell growth at 10 uM after 48 hrs by sulforhodamine B assay
KM12 = assay: Cytotoxicity against human KM12 cells assessed as cell growth at 10 uM after 48 hrs by sulforhodamine B assay
COLO 205 = assay: Cytotoxicity against human COLO205 cells assessed as cell growth at 10 uM after 48 hrs by sulforhodamine B assay
SF-295 = assay: Cytotoxicity against human SF295 cells assessed as cell growth at 10 uM after 48 hrs by sulforhodamine B assay
HCC 2998 = assay: Cytotoxicity against human HCC2998 cells assessed as cell growth at 10 uM after 48 hrs by sulforhodamine B assay
NCI-H322M = assay: Cytotoxicity against human NCI-H322M cells assessed as cell growth at 10 uM after 48 hrs by sulforhodamine B assay
TK-10 = assay: Cytotoxicity against human TK10 cells assessed as cell growth at 10 uM after 48 hrs by sulforhodamine B assay
UACC-257 = assay: Cytotoxicity against human UACC257 cells assessed as cell growth at 10 uM after 48 hrs by sulforhodamine B assay
NCI-H522 = assay: Cytotoxicity against human NCI-H522 cells assessed as cell growth at 10 uM after 48 hrs by sulforhodamine B assay
HOP-62 = assay: Cytotoxicity against human HOP62 cells assessed as cell growth at 10 uM after 48 hrs by sulforhodamine B assay
CCRF-CEM = assay: Cytotoxicity against human CCRF-CEM cells assessed as cell growth at 10 uM after 48 hrs by sulforhodamine B assay
HOP-92 = assay: Cytotoxicity against human HOP92 cells assessed as cell growth at 10 uM after 48 hrs by sulforhodamine B assay
SNB-19 = assay: Cytotoxicity against human SNB19 cells assessed as cell growth at 10 uM after 48 hrs by sulforhodamine B assay
HCT-116 = assay: Cytotoxicity against human HCT116 cells assessed as cell growth at 10 uM after 48 hrs by sulforhodamine B assay
UACC-62 = assay: Cytotoxicity against human UACC62 cells assessed as cell growth at 10 uM after 48 hrs by sulforhodamine B assay
SF-539 = assay: Cytotoxicity against human SF539 cells assessed as cell growth at 10 uM after 48 hrs by sulforhodamine B assay
A498 = assay: Cytotoxicity against human A498 cells assessed as cell growth at 10 uM after 48 hrs by sulforhodamine B assay
UO-31 = assay: Cytotoxicity against human UO31 cells assessed as cell growth at 10 uM after 48 hrs by sulforhodamine B assay
HL-60(TB) = assay: Cytotoxicity against human HL-60(TB) cells assessed as cell growth at 10 uM after 48 hrs by sulforhodamine B assay
SW-620 = assay: Cytotoxicity against human SW620 cells assessed as cell growth at 10 uM after 48 hrs by sulforhodamine B assay
786-0 = assay: Cytotoxicity against human 786-0 cells assessed as cell growth at 10 uM after 48 hrs by sulforhodamine B assay
Hs-578T = assay: Cytotoxicity against human Hs 578T cells assessed as cell growth at 10 uM after 48 hrs by sulforhodamine B assay
OVCAR-8 = assay: Cytotoxicity against human OVCAR8 cells assessed as cell growth at 10 uM after 48 hrs by sulforhodamine B assay
HT-29 = assay: Cytotoxicity against human HT-29 cells assessed as cell growth at 10 uM after 48 hrs by sulforhodamine B assay
SF-268 = assay: Cytotoxicity against human SF268 cells assessed as cell growth at 10 uM after 48 hrs by sulforhodamine B assay
PC-3 = assay: Cytotoxicity against human PC3 cells assessed as cell growth at 10 uM after 48 hrs by sulforhodamine B assay
OVCAR-3 = assay: Cytotoxicity against human OVCAR-3 cells assessed as cell growth at 10 uM after 48 hrs by sulforhodamine B assay
SNB-75 = assay: Cytotoxicity against human SNB75 cells assessed as cell growth at 10 uM after 48 hrs by sulforhodamine B assay
SN12C = assay: Cytotoxicity against human SN12C cells assessed as cell growth at 10 uM after 48 hrs by sulforhodamine B assay
RXF 393 = assay: Cytotoxicity against human RXF393 cells assessed as cell growth at 10 uM after 48 hrs by sulforhodamine B assay
OVCAR-5 = assay: Cytotoxicity against human OVCAR5 cells assessed as cell growth at 10 uM after 48 hrs by sulforhodamine B assay
ACHN = assay: Cytotoxicity against human ACHN cells assessed as cell growth at 10 uM after 48 hrs by sulforhodamine B assay
SK-MEL-28 = assay: Cytotoxicity against human SK-MEL-28 cells assessed as cell growth at 10 uM after 48 hrs by sulforhodamine B assay
NCI-H460 = assay: Cytotoxicity against human NCI-H460 cells assessed as cell growth at 10 uM after 48 hrs by sulforhodamine B assay
MDA-MB-231 = assay: Cytotoxicity against human MDA-MB-231 cells assessed as cell growth at 10 uM after 48 hrs by sulforhodamine B assay
U-251 = assay: Cytotoxicity against human U251 cells assessed as cell growth at 10 uM after 48 hrs by sulforhodamine B assay
HCT-15 = assay: Cytotoxicity against human HCT15 cells assessed as cell growth at 10 uM after 48 hrs by sulforhodamine B assay
LOX IMVI = assay: Cytotoxicity against human LOXIMVI cells assessed as cell growth at 10 uM after 48 hrs by sulforhodamine B assay
MOLT-4 = assay: Cytotoxicity against human MOLT4 cells assessed as cell growth at 10 uM after 48 hrs by sulforhodamine B assay
Malme-3M = assay: Cytotoxicity against human MALME-3M cells assessed as cell growth at 10 uM after 48 hrs by sulforhodamine B assay
SK-OV-3 = assay: Cytotoxicity against human SKOV3 cells assessed as cell growth at 10 uM after 48 hrs by sulforhodamine B assay
MDA-MB-435 = assay: Cytotoxicity against human MDA-MB-435 cells assessed as cell growth at 10 uM after 48 hrs by sulforhodamine B assay
A549 = assay: Cytotoxicity against human A549 cells assessed as cell growth at 10 uM after 48 hrs by sulforhodamine B assay
OVCAR-4 = assay: Cytotoxicity against human OVCAR4 cells assessed as cell growth at 10 uM after 48 hrs by sulforhodamine B assay
MCF7 = assay: Cytotoxicity against human MCF7 cells assessed as cell growth at 10 uM after 48 hrs by sulforhodamine B assay
SK-MEL-2 = assay: Cytotoxicity against human SK-MEL-2 cells assessed as cell growth at 10 uM after 48 hrs by sulforhodamine B assay
IGROV-1 = assay: Cytotoxicity against human IGROV1 cells assessed as cell growth at 10 uM after 48 hrs by sulforhodamine B assay
NCI-H226 = assay: Cytotoxicity against human NCI-H226 cells assessed as cell growth at 10 uM after 48 hrs by sulforhodamine B assay
BT-549 = assay: Cytotoxicity against human BT549 cells assessed as cell growth at 10 uM after 48 hrs by sulforhodamine B assay
SK-MEL-5 = assay: Cytotoxicity against human SK-MEL-5 cells assessed as cell growth at 10 uM after 48 hrs by sulforhodamine B assay
EKVX = assay: Cytotoxicity against human EKVX cells assessed as cell growth at 10 uM after 48 hrs by sulforhodamine B assay
T47D = assay: Cytotoxicity against human T47D cells assessed as cell growth at 10 uM after 48 hrs by sulforhodamine B assay
MDA-MB-468 = assay: Cytotoxicity against human MDA-MB-468 cells assessed as cell growth at 10 uM after 48 hrs by sulforhodamine B assay
M14 = assay: Cytotoxicity against human M14 cells assessed as cell growth at 10 uM after 48 hrs by sulforhodamine B assay
K562 = assay: Cytotoxicity against human K562 cells assessed as cell growth at 10 uM after 48 hrs by sulforhodamine B assay
SR = assay: Cytotoxicity against human SR cells assessed as cell growth at 10 uM after 48 hrs by sulforhodamine B assay

Measured: Activity

CCCc1cc(=O)oc2cc(OCc3nnc(S)o3)ccc12
inactive: RPMI-8226 | NCI-H23 | DU-145 | KM12 | COLO 205 | SF-295 | HCC 2998 | NCI-H322M | TK-10 | UACC-257 | NCI-H522 | HOP-62 | CCRF-CEM | HOP-92 | SNB-19 | HCT-116 | UACC-62 | SF-539 | A498 | UO-31 | HL-60(TB) | SW-620 | 786-0 | Hs-578T | OVCAR-8 | HT-29 | SF-268 | PC-3 | OVCAR-3 | SNB-75 | SN12C | RXF 393 | OVCAR-5 | ACHN | SK-MEL-28 | NCI-H460 | MDA-MB-231 | U-251 | HCT-15 | LOX IMVI | MOLT-4 | Malme-3M | SK-OV-3 | MDA-MB-435 | A549 | OVCAR-4 | MCF7 | SK-MEL-2 | IGROV-1 | NCI-H226 | BT-549 | SK-MEL-5 | EKVX | T47D | MDA-MB-468 | M14 | K562 | SR

CCCc1cc(=O)oc2cc(OCC(=O)n3nc(C)cc3C)ccc12
inactive: RPMI-8226 | NCI-H23 | DU-145 | KM12 | COLO 205 | SF-295 | HCC 2998 | NCI-H322M | TK-10 | UACC-257 | NCI-H522 | HOP-62 | CCRF-CEM | HOP-92 | SNB-19 | HCT-116 | UACC-62 | SF-539 | A498 | UO-31 | HL-60(TB) | SW-620 | 786-0 | Hs-578T | OVCAR-8 | HT-29 | SF-268 | PC-3 | OVCAR-3 | SNB-75 | SN12C | RXF 393 | OVCAR-5 | ACHN | SK-MEL-28 | NCI-H460 | MDA-MB-231 | U-251 | HCT-15 | LOX IMVI | MOLT-4 | Malme-3M | SK-OV-3 | MDA-MB-435 | A549 | OVCAR-4 | MCF7 | SK-MEL-2 | IGROV-1 | NCI-H226 | BT-549 | SK-MEL-5 | EKVX | T47D | MDA-MB-468 | M14 | K562 | SR
